From patent publication US20260034051A1, “STABLE INJECTABLE CANNABIDIOL FORMULATIONS” (CARDIOL THERAPEUTICS INC., priority 2022, published 2026)

Experiment: Solubility of cannabidiol in alkyl esters of octanoic acid
Format: physicochemical
Conditions: in methyl octanoate and/or ethyl octanoate
Method: The cannabidiol can be present in an amount of from about 100 mg/mL. The cannabidiol can also be present in an amount up to about 150 mg/mL, 200 mg/ml, 250 mg/mL, 300 mg/mL, or 350 mg/mL, with higher concentrations of cannabidiol being preferred to reduce injection volume and promote ease of administration while reducing patient discomfort. The identity of ingredients and their amounts in the solvent system will determine the actual amount of cannabidiol that can be fully dissolved. […] Therefore, the higher the amount of alkyl ester of fatty acid that is present, the higher the amount of cannabidiol that can be dissolved.

## C=C(C)[C@@H]1CCC(C)=C[C@H]1c1c(O)cc(CCCCC)cc1O [cannabidiol, Cannabidiol]
  amount of cannabidiol that can be dissolved: at least 750 mg/mL
